Measurements from ChEMBL document CHEMBL1138742, “Potent and orally bioavailable non-peptide antagonists at the human bradykinin B(1) receptor based on a 2-alkylamino-5-sulfamoylbenzamide core” (J Med Chem, 2004).

Target: T1, B2 bradykinin receptor (Homo sapiens, UniProt P30411)
T1 sequence (P30411 whole entry): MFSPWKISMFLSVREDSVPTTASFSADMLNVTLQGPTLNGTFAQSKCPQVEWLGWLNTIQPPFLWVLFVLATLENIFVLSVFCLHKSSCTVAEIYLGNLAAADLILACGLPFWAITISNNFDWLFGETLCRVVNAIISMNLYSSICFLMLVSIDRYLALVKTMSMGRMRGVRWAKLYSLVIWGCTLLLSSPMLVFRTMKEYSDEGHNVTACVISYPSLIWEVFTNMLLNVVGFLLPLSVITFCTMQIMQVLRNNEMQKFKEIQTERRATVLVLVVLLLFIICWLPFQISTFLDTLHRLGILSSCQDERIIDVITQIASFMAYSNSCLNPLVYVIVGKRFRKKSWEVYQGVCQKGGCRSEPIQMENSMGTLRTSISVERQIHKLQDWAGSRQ
Experiment: Binding affinity for Bradykinin receptor B2 expressed in COS7 cells
Assay type: cell-based, COS-7

Structure (SMILES)	Ki [nM]
CN(C)CCCN(CCCN(C)C)S(=O)(=O)c1ccc(NC(c2ccccc2)c2ccccc2)c([N+](=O)[O-])c1	1400

Target: T2, B1 bradykinin receptor (Homo sapiens, UniProt P46663)
T2 sequence (P46663 whole entry): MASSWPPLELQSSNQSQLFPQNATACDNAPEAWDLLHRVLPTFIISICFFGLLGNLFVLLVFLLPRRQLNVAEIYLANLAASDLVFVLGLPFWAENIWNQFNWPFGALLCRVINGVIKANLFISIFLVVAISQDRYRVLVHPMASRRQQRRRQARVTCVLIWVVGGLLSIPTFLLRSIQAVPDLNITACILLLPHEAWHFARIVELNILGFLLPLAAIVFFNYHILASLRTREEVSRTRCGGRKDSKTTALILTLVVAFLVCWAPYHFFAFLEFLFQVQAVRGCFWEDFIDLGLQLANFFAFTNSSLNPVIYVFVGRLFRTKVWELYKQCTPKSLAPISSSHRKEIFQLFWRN
Experiment: Binding affinity for Bradykinin receptor B1 expressed in HEK293 cells
Assay type: cell-based

Structure (SMILES)	Ki [nM]
CN(C)CCCN(CCCN(C)C)S(=O)(=O)c1ccc(NC(Cc2ccccc2)Cc2ccccc2)c([N+](=O)[O-])c1	250
CN(C)CCCN(CCCN(C)C)C(=O)C1CCN(S(=O)(=O)c2ccc(NCC(c3ccccc3)c3ccccc3)c(C(=O)N3CCOCC3)c2)CC1	1
CN(C)CCCN(CCCN(C)C)S(=O)(=O)c1ccc(NC(c2ccccc2)c2ccccc2)c([N+](=O)[O-])c1	3000
CC(=O)c1cc(S(=O)(=O)NCCC(=O)N(CCCN(C)C)CCCN(C)C)ccc1NCC(c1ccccc1)c1ccccc1	130
CN(C)CCCN(CCCN(C)C)C(=O)CCNS(=O)(=O)c1ccc(NCC(c2ccccc2)c2ccccc2)c([N+](=O)[O-])c1	140
CN1CCN(C(=O)C2CCN(S(=O)(=O)c3ccc(NCC(c4ccccc4)c4ccccc4)c(C(=O)N4CCOCC4)c3)CC2)CC1	10
CN(C)CCCN(CCCN(C)C)C(=O)CCNS(=O)(=O)c1ccc(NCC(c2ccccc2)c2ccccc2)c(Cl)c1	> 1000
CC(C)N1CCN(C(=O)C2CCN(S(=O)(=O)c3ccc(NCC(c4ccccc4)c4ccccc4)c(C(=O)N4CCOCC4)c3)CC2)CC1	10
CN(C)CCCN(CCCN(C)C)C(=O)CCNS(=O)(=O)c1ccc(NCC(c2ccccc2)c2ccccc2)c(C(=O)N2CCOCC2)c1	10
CN(C)CCCN(CCCN(C)C)C(=O)C1CCN(S(=O)(=O)c2ccc(NCC(c3ccccc3)c3ccccc3)c([N+](=O)[O-])c2)CC1	10
CN(C)CCCN(CCCN(C)C)S(=O)(=O)c1ccc(NCC(c2ccccc2)c2ccccc2)c([N+](=O)[O-])c1	230

Target: T2, B1 bradykinin receptor
Experiment: Inhibition of Bradykinin receptor B1 expressed in HEK293 cells
Assay type: cell-based

Structure (SMILES)	IC50 [nM]
CN(C)CCCN(CCCN(C)C)S(=O)(=O)c1ccc(NC(c2ccccc2)c2ccccc2)c([N+](=O)[O-])c1	6200
